Data from patent US20100150938A1, “METHODS AND COMPOSITIONS FOR REDUCING INFLAMMATION AND TREATING INFLAMMATORY DISORDERS” (UNIVERSITY OF MASSACHUSETTS, priority 2008, published 2010).
“Also recorded” adds a separate entry of the source.

Experiments:
Format in all cases: cell-based
human PBMCs = experiment: IL-1β release from human PBMCs (ELISA, Western blot)
Protocol: (§1) Bone marrow derived macrophages were generated as described (Severa, M et al. Journal of Biological Chemistry 281:26188-26195 (2006)). Human PBMCs were isolated by from whole blood of healthy volunteers by density gradient centrifugation. Lysis of red blood cells was performed using red blood cell lysis buffer (Sigma). Experiments in PBMCs and macrophages were carried out at a cell density of 2×10^6 cells/ml. All primary cells and cell lines except THP-1 cells were cultured in DMEM supplemented with L-glutamine, ciprofloxacin (Cellgro, Manassas, Va.) and 10% fetal calf serum (Hyclone, Logan, Utah). THP-1 cells were cultured in RPMI supplemented with 10% fetal calf serum (Hyclone), L-glutamine, sodium pyruvate (Cellgro), and ciprofloxacin. One day prior to stimulation, THP-1 cells were differentiated using 0.5 μM PMA for three hours, washed three times and plated for stimulation. All experiments that were performed for Western blot analysis were carried out in serum free DMEM medium. ATP stimulations were carried out at 5 mM one hour prior to harvesting supernatants.
(§2) Cell culture supernatants were assayed for IL-1β using ELISA kits from BD Biosciences (Franklin Lakes, NJ) according to the manufacturer's instructions. To measure intracellular IL-1β, cells were washed and subjected to three freeze thaw cycles in assay diluent.
Cell culture supernatants were precipitated by adding an equal volume of methanol and 0.25 volumes of chloroform, vortexed and centrifuged at 20.000×g for 10 min. The upper phase was discarded and 500 μl of methanol was added to the interphase. This mixture was centrifuged at 20.000×g for 10 min and the protein pellet dried at 55° C., resuspended in Laemmli buffer and boiled at 99° C. for 5 min. Samples were separated by SDS-PAGE (15%) and transferred onto nitrocellulose membranes. […]

mouse macrophages [1] = experiment: Crystal uptake (phagocytosis) in mouse macrophages, confocal reflection microscopy; details: cytochalasin D 2.5 μM
Description: Confocal reflection microscopy was combined with fluorescence microscopy on a Leica SP2 AOBS confocal laser scanning microscope. Reflection was captured by placing the detector channel directly over the wavelength of the selected laser channel for reflection light capture and the AOBS was set to allow 5-15% of laser light into the collection channel. Fluorescence was simultaneously captured by standard confocal imaging techniques.
To visualize the uptake of crystalline material in living cells, we devised a method to image crystals simultaneously with cellular components stained with fluorescent dyes (FIG. 8b). We used this method to study the uptake of crystals into mouse macrophages. […] The median length of silica Q6 crystals engulfed by phagocytosis was 1.65 μm (FIG. 3c).

mouse macrophages [2] = experiment: IL-1β release from LPS-primed mouse macrophages (bone marrow-derived, B6-MCLs), ELISA; details: LPS-primed B6-MCLs, cytochalasin D 30 min
Protocol: as §1
Immortalized macrophage cell lines were generated using the previously described J2 recombinant retrovirus (carrying v-myc and v-raf/mil oncogenes) (Roberson, S. M. & Walker, W. S. Cellular immunology 116:341-351 (1988)). Briefly, primary bone marrow cells were incubated in L929 conditioned medium for 3-4 days to induce macrophage differentiation. Subsequently, cells were infected with J2 recombinant retrovirus. Cells were maintained in culture for 3-6 months slowly weaning off the percentage of L929 supernatant until cells were growing in the absence of conditioned medium.
Macrophage phenotype was verified by surface marker expression for CD11b and F480 as well as a range of functional parameters, including responsiveness to TLR ligands and bacterial uptake. Macrophage cell lines from wild-type (C57BL6), NALP3- and ASC-deficient mice were generated and are referred to as B6-MCLs, NALP3 -MCLs and ASC-MCLs.
as §2
(§3) Stimulations were carried out in serum free DMEM medium. Microglial cells and macrophages were primed with 100 U/ml IFNγ (Griess assay, TNF ELISA, real-time quantitative PCR) or 100 ng/ml ultrapure LPS (IL-1β ELISA, FLICA, ASC-CFP microglia cell line assay, Western blot) 1-3 h prior to stimulation with Aβ, revAβ, zymosan, ATP or transfection with dAdT.

mouse microglia [3] = experiment: IL-1β release from LPS-primed mouse microglia (ELISA)
Protocol: For primary cultures, bone marrow-derived macrophages and microglia were isolated as described^42,43 and cultured in DMEM supplemented with L-glutamine, ciprofloxacin (Cellgro, Manassas, Va.) and 10% fetal calf serum (Hyclone, Logan, Utah) Immortalized macrophage and microglial cell lines were generated using J2 recombinant retrovirus (carrying v-myc and v-raf oncogenes)^44,45. Briefly, primary bone marrow cells were incubated in L929 conditioned medium for 3-4 days to induce macrophage differentiation. Cells were then infected with J2 recombinant retrovirus and maintained in culture until cells were growing in the absence of conditioned medium. Similarly, primary mixed glial cultures were cultured until fully confluent. After two consecutive infections with J2 retrovirus, cells were maintained in normal medium until growth of microglial cells in colonies was observed. The semi-adherent colonies of microglial cells were washed off and cultured in new flasks. […] Microglial cell lines form wild type (C57/BL6), Caspase-1^−/− and IL-IR^−/− mice as well as macrophage cell lines from wild type (C57BL6), NALP3 -, IPAF- and ASC-deficient mice were generated and used for experiments as indicated.
as §3
(§4) Cell culture supernatants were assayed for IL-1β and TNFα using ELISA kits from R&D Systems (Minneapolis, Minn.) according to the manufacturer's instructions. Nitric oxide was measured by Griess reaction of nitrites accumulated in the supernatants using chemicals from Sigma.

mouse microglia [4] = experiment: Nitric oxide production by primed microglia (Griess reaction); details: primed immortalized microglia, 24 h
Protocol: as §3, §4

mouse microglia [5] = experiment: TNF-α release from primed microglia (ELISA); details: primed immortalized microglia, 24 h
Protocol: as §3, §4

[6] = human PBMCs pretreated with cytochalasin D
[7] = wild type immortalized microglia

| Structure (SMILES) | IL-1β release after treatment with MSU or silica crystals, inhibitor pretreatment (human PBMCs; [6]) | IL-1β response to R-848 or ATP, inhibitor pretreatment (human PBMCs; [6]) | phagocytosis of silica or MSU crystals by treated cells (mouse macrophages [1]) | IL-1β response to ATP, inhibitor present (mouse macrophages [2]) | IL-1β release after treatment with MSU or silica crystals, inhibitor present (mouse macrophages [2]; MSU 250 μg/ml, silica 500 μg/ml) | ATP-induced IL-1β release in presence of cytochalasin D (mouse microglia [3]; [7]) | Aβ-induced IL-1β release in presence of cytochalasin D (mouse microglia [3]; [7]) | Aβ-induced NO production, inhibitor present (mouse microglia [4]) | IL-1β response to silica crystal treatment in presence of inhibitor (human PBMCs; LPS-primed human PBMCs, silica crystals, z-YVAD, 6 h) | ATP-induced IL-1β release in presence of caspase-1 inhibitor (mouse microglia [3]; primary microglia) | Aβ-induced IL-1β release in presence of caspase-1 inhibitor (mouse microglia [3]; primary microglia) | Aβ-induced IL-1β release in presence of caspase-1 inhibitor (mouse microglia [3]; wild type immortalized microglial cells, 6 h) | Aβ-induced TNF-α release, inhibitor present (mouse microglia [5]) |
| --- | --- | --- | --- | --- | --- | --- | --- | --- | --- | --- | --- | --- | --- |
| C=C1[C@@H](C)[C@H]2[C@H](Cc3ccccc3)NC(=O)[C@]23[C@H](OC(C)=O)/C=C/[C@@](C)(O)C(=O)[C@@H](C)C/C=C/[C@H]3[C@@H]1O [cytochalasin D] | completely abrogated | unaffected | failed to engulf | unaffected | abrogated | no effect; also recorded: not affected | strongly attenuated; also recorded: dose-dependently inhibited |  |  |  |  |  |  |
| COC(=O)C[C@H](NC(=O)[C@H](C)NC(=O)[C@@H](NC(=O)[C@H](Cc1ccc(O)cc1)NC(=O)OCc1ccccc1)C(C)C)C(=O)CF [z-YVAD, z-YVAD-fmk] |  |  |  |  |  |  |  | strongly and dose-dependently attenuated; also recorded: strongly inhibited | almost completely abolished | also inhibited | dose-dependently reduced | dose-dependent inhibition; also recorded: significant attenuation | attenuated; also recorded: inhibited |
